Reference: article PMC12162873, “Modulating phosphatase DUSP22 with BML-260 ameliorates skeletal muscle wasting via Akt independent JNK-FOXO3a repression” (EMBO Molecular Medicine, 2025)
“And” between values parts separate entries of the source, which are not always exact repeats. Equal values may be shown once.

Tests used:
human skeletal myotubes = assay: Dex-induced atrophy of human donor skeletal myotubes, myotube diameter; format: cell-based; details: 10 μM Dex and 12.5 μM BML-260 for 24 h
Excerpt: Figure 9 DUSP22 targeting downregulates atrogene expression in immobilized skeletal muscle and inhibits atrophy in human donor myotubes. (A) Effect of immobilization on skeletal muscle mass using the plastic EP tube method (n = 3). (B) qPCR analysis of DUSP22 expression in the TA muscle (IM = immobilized) (n = 3) (p = 0.018). (C) Plot of DUSP22 expression in relation to TA mass (n = 6). (D) Western blot analysis of DUSP22 expression (n = 3) (p = 0.1699). (E) TA mass (n = 9,7) (p = (Sham = <0.0001, BML-260 = 0.007)). […] Quantification of atrogin-1, MuRF-1, and DUSP22 levels relative to GAPDH are also shown. […]
Human skeletal myoblasts were purchased from Thermo-Fisher Scientific, USA, re-suspended in DM and seeded onto 12-well culture plates at a density of 4.8 × 10^4 cells/well. 72 h later, the differentiated myotubes were treated with 10 μM Dex for 24 h, stained with haematoxylin and eosin (H&E) using a kit (Merck, Germany) and myotube diameter measured by light microscopy analysis of DIC captured images (Olympus CKX41, Olympus Life Science, Japan) and the NIH imaging software Image J 64 (National Institutes of Health, MD, USA). At least 80 myotubes in 5 micrographs were measured in each experimental group.

[1] = system: 24-26-month-old male C57BL/6 mice; assay: Skeletal muscle aging model, BML-260 treatment; format: in vivo, mouse; design: Area / Feret / Feret, Average / Area, Average: unit not given here; details: for Area / Feret: listed as BML
Description: To assess DUSP22 pharmacological targeting, BML-260 was treated to 24–26-month-old male C57BL/6 mice as follows: (1) vehicle alone (5% DMSO + 5% tween 80) and (2) 5 mg/kg BML-260 (n = 5 per group). Mice were treated via IP delivery every 24 h for 4 weeks and then assessed for skeletal muscle function and condition.
Grip strength was measured using the BIO-GS3 device (Bioseb, FL, USA). Mice were placed onto the grid with all four paws attached and gently pulled backwards to measure the grip strength until the grid was released. The maximum grip value, used to represent muscle force, was calculated using 3 trials with an interval of 30 s.
Muscle fatigue was measured the previously described protocol (Chiu et al, [2018]), with two different models using the Rotarod. One was the constant model and the other was the accelerating model that is inherent in the rotarod device. In brief, the mice were accommodated to training before the commencement of the fatigue task using an accelerating rotarod (Ugo Basile, Italy). The mice were trained at a constant speed of 13 rpm for 15 min. After a recovery period of 15 min, the mice were placed on the rotarod adjusted to accelerate from 13 to 25 rpm in 3 min for 15 min. 24 h later, the muscle fatigue test was carried out with speeds ramping from 13 to 25 rpm in 3 min, and maintained at 25 rpm for a 30 min interval. Latency to fall off the rotarod was measured for each mouse. A fatigued mouse was classified as falling off 4 times within a 1 min period, which also terminated the test.
Mice were anesthetized using ketamine (22 mg/kg; Yuhan, Republic of Korea) and xylazine (10 mg/kg; Bayer, Republic of Korea) in saline by IP injection. The quadriceps, gastrocnemius, soleus and TA muscles were then dissected and weighed. For histological analysis, the muscles were fixed by overnight incubation with 4% paraformaldehyde in PBS pH 7.4 at 4 °C. Paraffin sectioning and H&E staining were provided by the Animal Housing Facility, Gwangju Institute of Science and Technology, Republic of Korea (5 µm muscle sections using a Thermo Scientific HistoStar (Thermofisher). H&E staining was carried out with a kit (Merck, Germany)). For immunohistochemistry, TA muscle sections were permeabilized for 15 min (PBS with 0.5% Triton X-100), blocked for 1 h (5% BSA) and incubated with the primary antibody overnight at 4 °C (a list of primary and secondary antibodies used in this study are provided in Appendix Tables S4 and S5, respectively). After washing with PBS 3 times for 5 min, the sections were incubated with the secondary antibody at RT for 1 h. The nuclei were counterstained with DAPI in ProLong™ Gold Antifade Mountant (Invitrogen, P36935). Digital images were acquired with Leica DM 2500 (Leica Microsystems). Cross sectional area (CSA) and fiber size distribution was measured using the NIH imaging software Image J 64. To CSA and size distribution of different fiber types was calculated in 4 muscle section as follows: type 2 A: 30–40 fibers measured; type 2B: at least 100 fibers measured; type 2X: 30–40 fibers measured.

[2] = 5 mg/kg IP every 24 h for 4 weeks
[3] = S10.B, group average of 3 animals
[4] = S10.B, individual measurements, animal BML 1
[5] = S10.B, mean per animal (BML 1, BML4, BML5)

O=C(O)c1ccc(N2C(=O)C(=Cc3ccccc3)SC2=S)cc1 (stereo in doubt) [BML-260]
mean myotube diameter (human skeletal myotubes): recovered the mean myotube diameter | CSA and Feret's diameter of type 2A, 2B and 2X myofibers, TA and gastrocnemius [1, 2]: increased | DUSP22 levels in the TA muscle, western blot [1, 2]: reduced DUSP22 levels | body weight [1, 2]: not significantly affected | expression of PGC-1α, qPCR [1, 2]: increased | expression of atrogin-1 and MuRF-1 in the TA muscle, qPCR [1, 2]: reduced | expression of myostatin, qPCR [1, 2]: reduced | grip strength mean value [1, 2]: increased by BML-260 treatment but did not reach statistical significance | latency to fall in the rotarod test [1, 2]: statistically increased | mass of quadriceps, gastrocnemius, TA and soleus muscles [1, 2]: increased the mean mass value of the quadriceps, gastrocnemius, TA and soleus muscles, and reached statistical significance for the TA and gastrocnemius muscles | proportion of slow type 1 myofibers [1, 2]: did not significantly affect | Area, Average [1, 3]: 2003.72 | Feret, Average [1, 3]: 60.0894 | Area [1, 4]: 2289.78 and 2476.44 and 2826.67 and 1960.89 and 2172.44 and 1594.67 and 2152.89 and 2090.67 and 1617.78 and 2085.33 and 2567.11 | Feret [1, 4]: 75.248 and 68.56 and 66.573 and 63.175 and 60.296 and 56.506 and 57.366 and 56.056 and 52.173 and 66.306 and 72.271 | Area [1, 5]: 2166.79 and 2165.89 and 1678.47 | Feret [1, 5]: 63.1391 and 63.015 and 54.114 | DUSP22 expression, western blot quantification, Average ([1]; TA of aged mice (Fig EV4A), Young average = 1): 0.2806 | DUSP22 expression, western blot quantification ([1]; TA of aged mice (Fig EV4A), Young average = 1, individual animals): 0.2303 and 0.3985 and 0.213 | increase of grip strength ([1]; aged skeletal muscle): > 20%
